Legend:
CYP450R enzyme = biological target: T1, CYP450R enzyme (Homo sapiens, UniProt P16435); assay: Hypoxia-dependent reduction experiments; type: biochemical; details: for reduction rate compared (compound A vs TH-302): NADPH and CYP 450R enzymes
T1 sequence (P16435 1-677): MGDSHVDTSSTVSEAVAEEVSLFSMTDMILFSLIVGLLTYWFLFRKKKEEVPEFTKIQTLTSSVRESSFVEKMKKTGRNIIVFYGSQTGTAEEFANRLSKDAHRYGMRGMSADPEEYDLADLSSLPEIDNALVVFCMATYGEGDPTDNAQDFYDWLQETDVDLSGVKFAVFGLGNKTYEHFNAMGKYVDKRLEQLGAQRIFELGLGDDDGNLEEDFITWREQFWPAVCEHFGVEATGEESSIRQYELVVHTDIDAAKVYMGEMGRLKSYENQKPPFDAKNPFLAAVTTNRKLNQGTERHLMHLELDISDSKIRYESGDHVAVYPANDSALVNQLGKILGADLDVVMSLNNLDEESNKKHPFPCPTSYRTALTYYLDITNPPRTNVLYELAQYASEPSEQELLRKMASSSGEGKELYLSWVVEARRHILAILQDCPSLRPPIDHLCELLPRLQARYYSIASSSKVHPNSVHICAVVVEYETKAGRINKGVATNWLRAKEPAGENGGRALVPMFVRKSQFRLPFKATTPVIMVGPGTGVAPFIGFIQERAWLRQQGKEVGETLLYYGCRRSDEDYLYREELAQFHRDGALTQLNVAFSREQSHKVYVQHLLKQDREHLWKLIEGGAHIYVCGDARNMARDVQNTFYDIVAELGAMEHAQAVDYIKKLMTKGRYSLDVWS
Description: The ingredients were added to each test tube without the addition of NADPH. Then 50 μl of sample from condition B was transferred to 100 μl acetonitrile (T=0). For samples to be tested under hypoxic conditions, the test tubes were placed in an hypoxic chamber (BACTRON anaerobic/environmental chamber). The reaction was initiated by adding NADPH to test tubes A and C and the sample was then placed at 37° C. For samples to be tested in air, the test tubes were placed in a hot plate at 37° C. After 30 minutes and 2 hours of incubation, 50 μl of samples were taken from each test tube and mixed with 100 μl acetonitrile. Any protein precipitate was removed by spinning all test tubes and placed into HPLC vials for analysis. The results were compared to the calibration curve of the real standard.

Panc 02.03 = assay: Cytotoxicity, pancreatic cancer PA cells Panc 02.03; type: cell-based; details: Homo sapiens
Description: (§1) Compounds were exposed at various concentrations for 72 hours, followed by a wash step. Fresh medium was added for growth. The cell was stained to determine the cell survival rate and compared with controls treated with medium only.
(§2) In particular, exponentially grown cells were inoculated in 96-well plates at a density of 2×10^3 cells/100 μl/well and incubated for 24 hours at 37° C. and under the conditions of 5% CO2, 95% air and 100% relative humidity before addition of 99 μl of culture solution. The compounds were dissolved in 100% DMSO at 200 times of the desired final test concentration. When the drug was added, an aliquot of 1 μl of the compound at the specified concentration was added to microwells already containing 199 μl of medium to obtain the reported final drug concentration. After adding the drug, plates were incubated for an additional 72 hours at 37° C., 5% CO2, 95% air and 100% relative humidity. The cell assay plate was left to balance for 30 minutes at room temperature and 100 μL of medium was removed from per well. 100 μl CTG reagent (CelltiterGlo kit) was added into each well. The plate was placed on a fast shaker and shaked for 2 min, and kept in dark at room temperature for 30 min. The chemiluminescence signal value was read by Envision instrument. […]

NCI-H1944 = assay: Cytotoxicity, NSCLC cell line NCI-H1944; type: cell-based; details: Homo sapiens
Description: as §1, §2

NCI-H1563 = assay: Cytotoxicity, NSCLC cell line NCI-H1563; type: cell-based; details: Homo sapiens
Description: as §1, §2

CAL12T = assay: Cytotoxicity, NSCLC cell line CAL12T; type: cell-based; details: Homo sapiens, CAL-12T
Description: as §1, §2

NCI-H23 = assay: Cytotoxicity, NSCLC cell line NCI-H23; type: cell-based; details: Homo sapiens
Description: as §1, §2

[1] = test system: HuPrime model GA6201 human gastric cancer subcutaneous transplantation PDX tumor; assay: GA6201 human gastric cancer subcutaneous PDX model; type: in vivo, BALB/c nude mice
[2] = test system: human liver cancer HepG2 subcutaneous xenograft; assay: Human liver cancer HepG2 subcutaneous xenograft model; type: in vivo, BALB/c nude mice; details: for relative tumor inhibition rate TGI (%): QW×3, tail vein, Day 45
From the text: BALB/c nude mice were subcutaneously inoculated with human liver cancer HepG2 cells to establish human liver cancer subcutaneous transplantation tumor model.

H460 cancer cells = assay: Cytotoxicity on H460 cancer cells, 72 h exposure, CTG; type: cell-based; details: Homo sapiens, NCI-H460
Description: The quantification value IC50 for cytotoxicity of a human tumor cell line in vitro was used to compare the cancer cell proliferation inhibition of compounds
as §1
In particular, exponentially grown cells were inoculated in 96-well plates at a density of 2×10^3 cells/100 μl/well and incubated for 24 hours at 37° C. and under the conditions of 5% CO2, 95% air and 100% relative humidity before addition of 99 μl of culture solution. The compounds were dissolved in 100% DMSO at 200 times of the desired final test concentration. When the drug was added, an aliquot of 1 μl of the compound at the specified concentration was added to microwells already containing 199 μl of medium to obtain the reported final drug concentration. After adding the drug, plates were incubated for an additional 72 hours at 37° C., 5% CO2, 95% air and 100% relative humidity. The cell assay plate was left to balance for 30 minutes at room temperature and 100 μL of medium was removed from per well. 100 μl CTG reagent (CelltiterGlo kit) was added into each well. […] The chemiluminescence signal value was read by Envision instrument.

[3] = Maximal tolerance dose (MTD) test, compound C, two cycles; type: in vivo, ICR mice; details: both sexes, mouse, in vivo; intravenous; ICR mice; read-out: maximal tolerance dose (MTD), overall
Description: (§3) 18 ICR mice, 9 females/9 males, were randomly divided into compound C 10 mg/kg group, 20 mg/kg group and 40 mg/kg group according to gender and body weight, with 3 females/3 males in each group. […] It was administered once a day for 5 continuous days, and recovered for 1 week after the last administration. […] To explore the maximal tolerance dose, two cycles of administration were required. The dosage was adjusted and the administration was continued for 5 days.
(§4) The animals were closely observed for 2 h after administration on the administration day and once a day in the morning and once in the afternoon on the non-administration day. Body weight and dietary intake were measured twice a week during the test period. Dead animals and all surviving animals after 14 days from the last administration were subjected to autopsy. The autopsy was performed on the pathological organs, and histopathological examination of the pathological organs was performed.

ICR mice = assay: as above; type: in vivo; details: for maximal tolerance dose: intravenous, ICR mice
Description: as §3, §4

**Q.** Which results are given for `O=[N+]([O-])c1ccc(C(OP(=O)(N2CC2)N2CC2)C(F)(F)F)c2ccccc12` (racemic) [Compound A]?
**A.** reduction rate compared (compound A vs TH-302) (CYP450R enzyme): similar; hypoxia-dependent reduction reaction (CYP450R enzyme; in the presence of NADPH and CYP 450R enzymes, 37° C.): showed a hypoxia-dependent reduction reaction; IC50 (Panc 02.03): 45.7 µM; IC50 (NCI-H1944): 0.538 µM; IC50 (NCI-H1563): 4.45 µM; IC50 (CAL12T): 30.5 µM; IC50 (NCI-H23): 6.41 µM; effect of tumor growth inhibition compared with isocyclophosphamide ([1]; GA6201 PDX): significant advantages; tumor volume ([1]; Group 06, 5-50 mg/kg regimen, day 7): 123.19 mm^3; tumor volume ([1]; Group 06, 5-50 mg/kg regimen, day 17): 219.91 mm^3; tumor volume ([1]; Group 06, 5-50 mg/kg regimen, day 21): 246.57 mm^3; tumor volume ([1]; Group 06, 5-50 mg/kg regimen, day 24): 271.72 mm^3; tumor volume ([1]; Group 06, 5-50 mg/kg regimen, day 31): 270.68 mm^3; tumor volume ([1]; Group 06, 5-50 mg/kg regimen, day 35): 299.31 mm^3; tumor volume ([1]; Group 06, 5-50 mg/kg regimen, day 38): 277.17 mm^3; tumor volume ([1]; Group 06, 5-50 mg/kg regimen, day 45): 342.08 mm^3; tumor volume ([1]; Group 06, 5-50 mg/kg regimen, day 49): 287.47 mm^3

**Q.** With `O=[N+]([O-])c1ccc([C@@H](OP(=O)(N2CC2)N2CC2)C(F)(F)F)c2ccccc12` (single isomer, unassigned) [Compound C] as the molecule, how does the cure rate ([2]; 20 mg/kg (Group 5)) read?
**A.** 20%

**Q.** And the “relative tumor inhibition rate TGI (%)” value ([2]; 20 mg/kg)?
**A.** 33.10%

**Q.** What about the cure rate ([2]; 40 mg/kg (Group 6)) of the same molecule?
**A.** 20%

**Q.** What about the “relative tumor inhibition rate TGI (%)” value ([2]; 40 mg/kg) of the same molecule?
**A.** 75.59%

**Q.** What about the IC50 (H460 cancer cells) of the same molecule?
**A.** 0.0769 µM

**Q.** What about the MTD [3] of the same molecule?
**A.** 20 to 40 mg/kg

**Q.** What about the “animal deaths after first cycle” value (ICR mice; 10, 20 and 40 mg/kg i.v., continuous administration for 5 days) of the same molecule?
**A.** no animal death

**Q.** What about the animal deaths (ICR mice; 10/80 mg/kg group (first cycle 10, second cycle 80 mg/kg)) of the same molecule?
**A.** 1/6

**Q.** What about the animal deaths (ICR mice; 20/60 mg/kg group) of the same molecule?
**A.** 3/6

**Q.** And the animal deaths (ICR mice; 40/40 mg/kg group)?
**A.** 1/6

**Q.** What about the maximal tolerance dose (ICR mice; first cycle) of the same molecule?
**A.** > 40 mg/kg

**Q.** And the maximal tolerance dose (ICR mice; second cycle)?
**A.** < 40 mg/kg

**Q.** Which results are given for `Cn1c(COP(=O)(NCCBr)NCCBr)cnc1[N+](=O)[O-]` [TH-302, Evofosfamide]?
**A.** reduction rate compared (compound A vs TH-302) (CYP450R enzyme): similar; tumor volume ([1]; Group 02, 60 mg/kg i.p., day 3): 122.22 mm^3; tumor volume ([1]; Group 02, 60 mg/kg i.p., day 7): 129.39 mm^3; tumor volume ([1]; Group 02, 60 mg/kg i.p., day 10): 175.00 mm^3; tumor volume ([1]; Group 02, 60 mg/kg i.p., day 14): 190.74 mm^3; tumor volume ([1]; Group 02, 60 mg/kg i.p., day 17): 189.23 mm^3; tumor volume ([1]; Group 02, 60 mg/kg i.p., day 21): 217.96 mm^3; tumor volume ([1]; Group 02, 60 mg/kg i.p., day 24): 225.66 mm^3; tumor volume ([1]; Group 02, 60 mg/kg i.p., day 28): 247.04 mm^3; tumor volume ([1]; Group 02, 60 mg/kg i.p., day 31): 265.76 mm^3; tumor volume ([1]; Group 02, 60 mg/kg i.p., day 35): 324.51 mm^3; tumor volume ([1]; Group 02, 60 mg/kg i.p., day 38): 371.02 mm^3; tumor volume ([1]; Group 02, 60 mg/kg i.p., day 42): 403.47 mm^3; tumor volume ([1]; Group 02, 60 mg/kg i.p., day 45): 484.83 mm^3; tumor volume ([1]; Group 02, 60 mg/kg i.p., day 49): 578.60 mm^3; tumor volume ([1]; Group 02, 60 mg/kg, QDx5/week × 2 wks, i.p., day 0): 94.15 mm^3
